Laboratory results published in patent publication US20250283040A1, “Methods to Expand a T Regulatory Cell Master Cell Bank” (The Trustees of the University of Pennsylvania, priority 2010, published 2025).
Several values for one entry are separate records, joined by “and”; a condition that tells them apart may be missing. Identical values can stand only once.

What was measured:
Assay type in all cases: cell-based, human
nTreg cultures = test: Intracellular cytokine staining after PMA/Ionomycin
Description: Fresh or frozen nTreg were cultured in supplemented X-Vivo 15 for 4 hours±PMA ([…]) and Ionomycin (1 μg/ml) in the presence of Brefeldin A (100 ng/ml) (all Sigma). Frozen/thawed samples were cultured for 1 hour at 37° C. prior to re-stimulation. Cells were then harvested and stained for CD4, 25, Foxp3 and cytokine (IL-2, IL-4, IL-17, and IFNγ) or Granzyme B using the standard Foxp3 intracellular staining kit.

PB nTreg [1] = test: Cell size and viability of nTreg cultures by ViCell; details: sort-purified nTregs stimulated with KT64/86 cells; Rapamycin 109 nM
Description: (§1) Where indicated, Rapamycin (Rapammune, Wyeth-Ayerst) at 109 nM was added on day 0 and with subsequent media supplementation. Cell size and viability were determined by ViCell (Beckman Coulter).

PB nTreg [2] = test: Ex vivo expansion of PB nTreg cultures (fold expansion); details: sort-purified nTregs, first stimulation with KT64/86 cells; Rapamycin 109 nM
Description: Experiments were designed to expand Tregs isolated from adult peripheral blood. Tregs were isolated by a two step procedure in which CD4 cells were first enriched by depleting CD8, −14, and −19+ cells with GMP-grade mAb coated microbeads, followed by positive selection of CD25++ cells using GMP-grade anti-CD25 microbeads (either 75μl/2×10^8 cells, Miltenyi). Treg were subsequently expanded in vitro by repeated stimulation with CD3/28 beads or KT64/86 loaded with anti-CD3 antibody. In addition, the expansion scheme involved expanding Tregs in the presence of Rapamycin (109 nM) and restimulation based upon cell size.
For all experiments, non-mobilized peripheral blood Leukapheresis products were collected from normal adult volunteers using FDA approved/cleared apheresis instruments. Written informed consent was obtained from all subjects. nTreg were purified using GMP magnetic beads or by sorting. […]
as §1

[3] = sort-purified nTreg re-stimulated with KT64/86

CO[C@H]1C[C@@H]2CC[C@@H](C)[C@@](O)(O2)C(=O)C(=O)N2CCCC[C@H]2C(=O)O[C@H]([C@H](C)C[C@@H]2CC[C@@H](O)[C@H](OC)C2)CC(=O)[C@H](C)/C=C(\C)[C@@H](O)[C@@H](OC)C(=O)[C@H](C)C[C@H](C)/C=C/C=C/C=C/1C [Rapamycin]
% of PMA/ionomycin stimulated cells secreting IL-2, with Rapamycin (nTreg cultures; [3]): ≤ 3% | % of cells secreting IFNγ, with Rapamycin (nTreg cultures; [3]): ≤ 2% | % IL-4+ cells, start of the increase with successive re-stimulations (nTreg cultures; with Rapamycin): 8±2% | % IL-4+ cells after the last (fourth) re-stimulation (nTreg cultures; with Rapamycin, Foxp3+ and −): 58±17% and > 50% | Peak cell size with Rapamycin (PB nTreg [1]): 9.9 µm | Expansion with Rapamycin (PB nTreg [2]): 55 fold
